Measured values from ChEMBL document CHEMBL3885861, “Open TG-GATES”.

Species on record: Rattus norvegicus
Test: Open TG-GATES - Regimen: Single
Assay type: toxicity, organism-based, Sprague-Dawley
Parameters: regimen Single, gender Male, age 6 weeks
Details: in vivo, po, 30 mg/kg, route gavage, dose level High; for APTT / Bas / Eos / Fbg / Hb / Ht / Lym / MCH / MCHC / MCV / Mono / Neu / PT / Plat / RBC / Ret / WBC: tissue Blood; for KIDNEY_L / KIDNEY_R / KIDNEY_TOTAL: tissue Kidney; for LIVER: tissue Liver; for A/G / ALP / ALT / AST / BUN / CRE / Ca / Cl / DBIL / GLC / IP / K / LDH / Na / PL / RALB / TBIL / TC / TG / TP / gamma-GTP: tissue Plasma

C=CCO [ALLYL ALCOHOL]
TERMINAL_BW (3 h): 222.7 g | APTT (3 h): 19.6 s | Bas (3 h): 0% | Eos (3 h): 1% | Fbg (3 h): 211.6 mg/dL | Hb (3 h): 13.4 g/dL | Ht (3 h): 38.7% | Lym (3 h): 75% | MCH (3 h): 21.7 pg | MCHC (3 h): 34.8% | MCV (3 h): 62.3 fL | Mono (3 h): 3% | Neu (3 h): 20.4% | PT (3 h): 12.4 s | Plat (3 h): 134.6 x10_4/uL | RBC (3 h): 622.4 x10_4/ul | Ret (3 h): 7.4% | WBC (3 h): 88.9 x10_2/uL | KIDNEY_L (3 h): 1 g | KIDNEY_R (3 h): 1 g | KIDNEY_TOTAL (3 h): 1.9 g | LIVER (3 h): 10.3 g | A/G (3 h): 1.5 | ALP (3 h): 976.6 IU/L | ALT (3 h): 42.8 IU/L | AST (3 h): 77.2 IU/L | BUN (3 h): 12 mg/dL | CRE (3 h): 0.3 mg/dL | Ca (3 h): 11 mg/dL | Cl (3 h): 101.6 meq/L | DBIL (3 h): 0.5 mg/dL | GLC (3 h): 202.2 mg/dL | IP (3 h): 8.9 mg/dL | K (3 h): 3.7 meq/L | LDH (3 h): 233.4 IU/L | Na (3 h): 140.8 meq/L | PL (3 h): 177 mg/dL | RALB (3 h): 3.4 g/dL | TBIL (3 h): 0.6 mg/dL | TC (3 h): 80 mg/dL | TG (3 h): 255 mg/dL | TP (3 h): 5.6 g/dL | gamma-GTP (3 h): 1.2 IU/L | TERMINAL_BW (6 h): 220.4 g | APTT (6 h): 19.3 s | Bas (6 h): 0% | Eos (6 h): 1% | Fbg (6 h): 217 mg/dL | Hb (6 h): 13.5 g/dL | Ht (6 h): 39.5% | Lym (6 h): 67% | MCH (6 h): 20.5 pg | MCHC (6 h): 34% | MCV (6 h): 60.2 fL | Mono (6 h): 5.2% | Neu (6 h): 25.8% | PT (6 h): 12.4 s | Plat (6 h): 129.3 x10_4/uL | RBC (6 h): 658 x10_4/ul | Ret (6 h): 7.1% | WBC (6 h): 127.5 x10_2/uL | KIDNEY_L (6 h): 0.9 g | KIDNEY_R (6 h): 0.9 g | KIDNEY_TOTAL (6 h): 1.9 g | LIVER (6 h): 9.4 g | A/G (6 h): 1.4 | ALP (6 h): 1023.4 IU/L | ALT (6 h): 101.2 IU/L | AST (6 h): 168.4 IU/L | BUN (6 h): 10.2 mg/dL | CRE (6 h): 0.4 mg/dL | Ca (6 h): 10.5 mg/dL | Cl (6 h): 102.4 meq/L | DBIL (6 h): 0.1 mg/dL | GLC (6 h): 198.4 mg/dL | IP (6 h): 9.2 mg/dL | K (6 h): 3.8 meq/L | LDH (6 h): 564.8 IU/L | Na (6 h): 140.6 meq/L | PL (6 h): 168 mg/dL | RALB (6 h): 3.1 g/dL | TBIL (6 h): 0.2 mg/dL | TC (6 h): 85.4 mg/dL | TG (6 h): 97.6 mg/dL | TP (6 h): 5.3 g/dL | gamma-GTP (6 h): 2 IU/L | TERMINAL_BW (9 h): 216.4 g | APTT (9 h): 18.7 s | Bas (9 h): 0% | Eos (9 h): 1% | Fbg (9 h): 222.2 mg/dL | Hb (9 h): 13.2 g/dL | Ht (9 h): 38.8% | Lym (9 h): 66.8% | MCH (9 h): 21.3 pg | MCHC (9 h): 34.1% | MCV (9 h): 62.5 fL | Mono (9 h): 3.2% | Neu (9 h): 28.6% | PT (9 h): 12.4 s | Plat (9 h): 129.2 x10_4/uL | RBC (9 h): 620.6 x10_4/ul | Ret (9 h): 7.4% | WBC (9 h): 104.8 x10_2/uL | KIDNEY_L (9 h): 1 g | KIDNEY_R (9 h): 1 g | KIDNEY_TOTAL (9 h): 2 g | LIVER (9 h): 9.3 g | A/G (9 h): 1.5 | ALP (9 h): 1007 IU/L | ALT (9 h): 30.6 IU/L | AST (9 h): 64.2 IU/L | BUN (9 h): 11.4 mg/dL | CRE (9 h): 0.4 mg/dL | Ca (9 h): 10.3 mg/dL | Cl (9 h): 101.4 meq/L | DBIL (9 h): 0.086 mg/dL | GLC (9 h): 206.8 mg/dL | IP (9 h): 10.5 mg/dL | K (9 h): 4.2 meq/L | LDH (9 h): 200 IU/L | Na (9 h): 139 meq/L | PL (9 h): 141.2 mg/dL | RALB (9 h): 3.1 g/dL | TBIL (9 h): 0.1 mg/dL | TC (9 h): 73 mg/dL | TG (9 h): 63.8 mg/dL | TP (9 h): 5.2 g/dL | gamma-GTP (9 h): 0.8 IU/L | TERMINAL_BW (24 h): 231.4 g | APTT (24 h): 18.2 s | Bas (24 h): 0% | Eos (24 h): 1% | Fbg (24 h): 257.2 mg/dL | Hb (24 h): 13 g/dL | Ht (24 h): 38.3% | Lym (24 h): 67.4% | MCH (24 h): 20.9 pg | MCHC (24 h): 34.1% | MCV (24 h): 61.4 fL | Mono (24 h): 4.4% | Neu (24 h): 26.8% | PT (24 h): 11.9 s | Plat (24 h): 138.1 x10_4/uL | RBC (24 h): 625 x10_4/ul | Ret (24 h): 6.1% | WBC (24 h): 103.6 x10_2/uL | KIDNEY_L (24 h): 1 g | KIDNEY_R (24 h): 1 g | KIDNEY_TOTAL (24 h): 2 g | LIVER (24 h): 11.5 g | A/G (24 h): 1.4 | ALP (24 h): 963.8 IU/L | ALT (24 h): 33.6 IU/L | AST (24 h): 64 IU/L | BUN (24 h): 12.6 mg/dL | CRE (24 h): 0.4 mg/dL | Ca (24 h): 10.4 mg/dL | Cl (24 h): 102.4 meq/L | DBIL (24 h): 0.052 mg/dL | GLC (24 h): 203.8 mg/dL | IP (24 h): 7.6 mg/dL | K (24 h): 3.6 meq/L | LDH (24 h): 209.8 IU/L | Na (24 h): 141 meq/L | PL (24 h): 148 mg/dL | RALB (24 h): 3 g/dL | TBIL (24 h): 0.1 mg/dL | TC (24 h): 81.6 mg/dL | TG (24 h): 83 mg/dL | TP (24 h): 5.1 g/dL | gamma-GTP (24 h): 0.8 IU/L
